Consider twelve compounds from patent US11713315B2, “5 to 7 membered heterocyclic amides as JAK inhibitors” (priority 2018, dated 2023).

The data set can be described thus: Lung S9 metabolism. In kind it is in vitro ADME. To be noted: human lung S9; qualitative observation of O-sulfate metabolite peak. The protocol:
Lung S9 fractions from human (lot 1410245) were purchased from XenoTech LLC (Lenexa, Kans.). NADPH (Sigma Aldrich, N1630) and 3-phosphoadenosine 5-phosphosulfate (PAPS) (Sigma Aldrich, A1651) were purchased from Sigma Aldrich (St. Louis, Mo.). Acetonitrile and water were obtained from VWR (Radnor, Pa.) and were of HPLC grade or better. Raloxifene and formic acid was purchased from Sigma Aldrich (St. Louis, Mo.). Lung S9 incubations were performed in a water bath at 37° C. in a 96-well polypropylene plate. […] All samples were centrifuged at 2250 g for 10 minutes at 5° C. Supernatant […] was taken from the centrifuged samples and diluted into 1004 HPLC water containing internal standard. […] Mobile Phase A consisted of Water+0.2% formic acid and Mobile Phase B consisted of acetonitrile+0.2% formic acid. Peak integration was accomplished using Gubbs GMSU software (Gubbs Inc., Alpharetta, Ga.). For each sample, peak area ratios were calculated by dividing the analyte peak area by the internal standard peak area. […] Determination of sulfate metabolite formation was made qualitatively by observation of early-eluting peak in the parent ion channel which, based on historical internal data, corresponded to the 0-sulfate metabolite of each parent compound.
As to `CCCN1Cc2[nH]c(-c3n[nH]c4cc(-c5ccc(O)cc5CC)ccc34)nc2C[C@H]1C(=O)N1CCN(CCO)CC1` [Compound 1, (S)-(2-(6-(2-ethyl-4-hydroxyphenyl)-1H-indazol-3-yl)-5-propyl-4,5,6,7-tetrahydro-3H-imidazo[4,5-c]pyridin-6-yl)(4-(2-hydroxyethyl)piperazin-1-yl)methanone], the “Sulfate Appearance” value is given as “Yes”.

With `CCCN1Cc2[nH]c(-c3n[nH]c4cc(-c5ccc(O)cc5CC)ccc34)nc2C[C@H]1C(=O)N1C[C@@H]2C[C@H]1CN2C` [Compound 2, ((S)-2-(6-(2-ethyl-4-hydroxyphenyl)-1H-indazol-3-yl)-5-propyl-4,5,6,7-tetrahydro-3H-imidazo[4,5-c]pyridin-6-yl)((1S,4S)-5-methyl-2,5-diazabicyclo[2.2.1]heptan-2-yl)methanone], the “Sulfate Appearance” value is on record as “Yes”.

For `CCc1cc(O)ccc1-c1ccc2c(-c3nc4c([nH]3)CN(C)[C@H](C(=O)N3CCN(C)C[C@@H]3C)C4)n[nH]c2c1` [Compound 3, ((S)-2,4-dimethylpiperazin-1-yl)((S)-2-(6-(2-ethyl-4-hydroxyphenyl)-1H-indazol-3-yl)-5-methyl-4,5,6,7-tetrahydro-3H-imidazo[4,5-c]pyridin-6-yl)methanone], the “Sulfate Appearance” value was “Yes”.

For `CCc1cc(O)ccc1-c1ccc2c(-c3nc4c([nH]3)CN(C(C)C)[C@H](C(=O)N3CCCN(C)CC3)C4)n[nH]c2c1` [Compound 4, (S)-(2-(6-(2-ethyl-4-hydroxyphenyl)-1H-indazol-3-yl)-5-isopropyl-4,5,6,7-tetrahydro-3H-imidazo[4,5-c]pyridin-6-yl)(4-methyl-1,4-diazepan-1-yl)methanone], the “Sulfate Appearance” value is recorded as “Yes”.

With `CCc1cc(O)ccc1-c1ccc2c(-c3nc4c([nH]3)CN(C)[C@H](C(=O)N3CCN(CCO)C[C@H]3C)C4)n[nH]c2c1` [Compound 5, ((S)-2-(6-(2-ethyl-4-hydroxyphenyl)-1H-indazol-3-yl)-5-methyl-4,5,6,7-tetrahydro-3H-imidazo[4,5-c]pyridin-6-yl)((R)-4-(2-hydroxyethyl)-2-methylpiperazin-1-yl)methanone], the “Sulfate Appearance” value is recorded as “Yes”.

As for `CCc1cc(O)ccc1-c1ccc2c(-c3nc4c([nH]3)CN(C(C)C)[C@H](C(=O)N3CC[C@H](N(C)C)C3)C4)n[nH]c2c1` [Compound 6, ((S)-3-(dimethylamino)pyrrolidin-1-yl)((S)-2-(6-(2-ethyl-4-hydroxyphenyl)-1H-indazol-3-yl)-5-isopropyl-4,5,6,7-tetrahydro-3H-imidazo[4,5-c]pyridin-6-yl)methanone], the “Sulfate Appearance” value is “Yes”.

On to `CCCN1Cc2[nH]c(-c3n[nH]c4cc(-c5cc(F)c(O)cc5CC)ccc34)nc2C[C@H]1C(=O)N1CCN(CCO)CC1` [Compound C-1, (S)-(2-(6-(2-ethyl-5-fluoro-4-hydroxyphenyl)-1H-indazol-3-yl)-5-propyl-4,5,6,7-tetrahydro-3H-imidazo[4,5-c]pyridin-6-yl)(4-(2-hydroxyethyl)piperazin-1-yl)methanone], for which the “Sulfate Appearance” value was “Yes”.

`CCCN1Cc2[nH]c(-c3n[nH]c4cc(-c5cc(F)c(O)cc5CC)ccc34)nc2C[C@H]1C(=O)N1C[C@@H]2C[C@H]1CN2C` [Compound C-2]: the “Sulfate Appearance” value is given as “Yes”.

For the compound `CCc1cc(O)c(F)cc1-c1ccc2c(-c3nc4c([nH]3)CN(C)[C@H](C(=O)N3CCN(C)C[C@@H]3C)C4)n[nH]c2c1` [Compound C-3, ((S)-2,4-dimethylpiperazin-1-yl)((S)-2-(6-(2-ethyl-5-fluoro-4-hydroxyphenyl)-1H-indazol-3-yl)-5-methyl-4,5,6,7-tetrahydro-3H-imidazo[4,5-c]pyridin-6-yl)methanone], the “Sulfate Appearance” value is “Yes”.

For the compound `CCc1cc(O)c(F)cc1-c1ccc2c(-c3nc4c([nH]3)CN(C(C)C)[C@H](C(=O)N3CCCN(C)CC3)C4)n[nH]c2c1` [Compound C-4, (S)-(2-(6-(2-ethyl-5-fluoro-4-hydroxyphenyl)-1H-indazol-3-yl)-5-isopropyl-4,5,6,7-tetrahydro-3H-imidazo[4,5-c]pyridin-6-yl)(4-methyl-1,4-diazepan-1-yl)methanone], the “Sulfate Appearance” value is “Yes”.

In the case of `CCc1cc(O)c(F)cc1-c1ccc2c(-c3nc4c([nH]3)CN(C)[C@H](C(=O)N3CCN(CCO)C[C@H]3C)C4)n[nH]c2c1` [Compound C-5, ((S)-2-(6-(2-ethyl-5-fluoro-4-hydroxyphenyl)-1H-indazol-3-yl)-5-methyl-4,5,6,7-tetrahydro-3H-imidazo[4,5-c]pyridin-6-yl)((R)-4-(2-hydroxyethyl)-2-methyl-piperazin-1-yl)methanone], the “Sulfate Appearance” value is given as “Yes”.

On to `CCc1cc(O)c(F)cc1-c1ccc2c(-c3nc4c([nH]3)CN(C(C)C)[C@H](C(=O)N3CC[C@H](N(C)C)C3)C4)n[nH]c2c1` [Compound C-6], for which the “Sulfate Appearance” value is listed as “Yes”.
